Experimental findings from US6410740B1, “Heterocyclylmethyl-substituted pyrazol derivatives” (Bayer Aktiengesellschaft, priority 1996, dated 2002) are described below.

Data set [1] deals with human platelets stimulated with collagen. Nature of the data set: Inhibition of platelet aggregation in vitro (collagen-induced, platelet-rich plasma). The format is cell-based. Particulars: human PRP, 37° C. Here is the method:
Inhibition of Platelet Aggregation in vitro
To determine the platelet aggregation-inhibiting action, blood from healthy subjects of both sexes was used. One part of 3.8% strength aqueous sodium citrate solution was admixed to 9 parts of blood as an anticoagulant. Platelet-richer citrate plasma (PRP) is obtained from this blood by means of centrifugation.
For the investigations, 445 μl of PRP and 5 μl of the active compound solution were preincubated in a water-bath at 37° C. The platelet aggregation was then determined in an aggregometer at 37° C. using the turbidometric method. For this, 50 μl of collagen, an aggregation-inducing agent, were added to the preincubated sample and the change in optical density was recorded. For the quantitative evaluation, the maximum aggregation response was determined and the percentage inhibition compared with the control was calculated therefrom.
Inhibition of Platelet Pggregation in vitro
For these investigations, 445 μl of PRP and 5 μl of the active compound solution were preincubated in a water-bath at 37° C. The platelet aggregation was then determined in an aggregometer at 37° C. using the turbidometric method. For this, 50 μl of collagen, an aggregation-inducing agent, were added to the preincubated sample and the change in optical density was recorded. For the quantitative evaluation, the maximum aggregation response was determined and the percentage inhibition compared with the control was calculated therefrom.

Data set [2] deals with T1, soluble guanylate cyclase (Sus scrofa, UniProt A0A4X1U7N1+A0ACM8Q7I6).
T1 construct: endogenous in cells; host or cells: primary endothelial cells from pig aorta
T1 sequence (A0A4X1U7N1 1-619): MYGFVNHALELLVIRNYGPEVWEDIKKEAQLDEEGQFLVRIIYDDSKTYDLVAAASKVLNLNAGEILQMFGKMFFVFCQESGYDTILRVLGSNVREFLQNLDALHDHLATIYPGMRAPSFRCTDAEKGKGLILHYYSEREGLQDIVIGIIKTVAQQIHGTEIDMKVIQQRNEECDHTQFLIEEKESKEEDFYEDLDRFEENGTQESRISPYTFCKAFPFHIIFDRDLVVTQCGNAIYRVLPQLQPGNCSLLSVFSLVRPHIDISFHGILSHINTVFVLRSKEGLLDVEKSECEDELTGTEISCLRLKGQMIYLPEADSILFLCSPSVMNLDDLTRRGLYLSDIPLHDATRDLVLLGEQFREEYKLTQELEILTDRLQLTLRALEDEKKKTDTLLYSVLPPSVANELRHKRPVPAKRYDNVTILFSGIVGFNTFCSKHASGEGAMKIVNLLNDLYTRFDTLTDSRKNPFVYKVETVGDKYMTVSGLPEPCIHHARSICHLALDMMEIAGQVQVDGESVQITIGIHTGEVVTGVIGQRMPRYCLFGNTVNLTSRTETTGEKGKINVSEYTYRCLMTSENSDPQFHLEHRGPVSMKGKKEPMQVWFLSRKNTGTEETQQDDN
T1 sequence (A0ACM8Q7I6 1-688): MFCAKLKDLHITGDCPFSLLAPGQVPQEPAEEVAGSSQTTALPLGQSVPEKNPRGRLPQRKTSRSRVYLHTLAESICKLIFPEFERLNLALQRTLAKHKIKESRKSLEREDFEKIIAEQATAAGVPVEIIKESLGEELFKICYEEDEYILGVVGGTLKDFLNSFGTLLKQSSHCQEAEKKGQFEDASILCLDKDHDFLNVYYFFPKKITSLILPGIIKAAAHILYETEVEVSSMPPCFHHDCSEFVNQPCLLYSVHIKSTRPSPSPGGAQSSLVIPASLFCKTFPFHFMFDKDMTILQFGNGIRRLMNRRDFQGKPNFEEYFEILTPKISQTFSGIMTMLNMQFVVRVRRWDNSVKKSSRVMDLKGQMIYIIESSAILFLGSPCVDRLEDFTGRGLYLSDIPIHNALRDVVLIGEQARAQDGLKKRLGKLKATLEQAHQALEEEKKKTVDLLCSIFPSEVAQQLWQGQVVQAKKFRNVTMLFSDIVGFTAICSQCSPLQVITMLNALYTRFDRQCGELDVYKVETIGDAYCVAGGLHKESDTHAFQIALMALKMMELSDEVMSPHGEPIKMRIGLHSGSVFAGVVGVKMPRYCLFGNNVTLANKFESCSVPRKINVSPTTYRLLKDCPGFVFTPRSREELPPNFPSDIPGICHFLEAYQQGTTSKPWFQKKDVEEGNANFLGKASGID
Nature of the data set: Stimulation of soluble guanylate cyclase in primary endothelial cells (intracellular cGMP, radioimmunological). Particulars: test substance 1 μM, 10-minute incubation, primary pig aortic endothelial cells, with or without SNP 1 μM (not stated which); for activation at 1 µM: 10 min, read-out: % increase in cGMP. The format is cell-based. Here is the method:
Stimulation of Soluble Guanylate Cyclase in Primary Endothelial Cells
(§1) Primary endothelial cells were isolated from pig aortas by treatment with collagenase solution. The cells were then cultured in a culture medium until confluence was reached. For the investigations, the cells were subjected to passaging, sown in cell culture plates and subcultured until confluence was reached. To stimulate the endothelial guanylate cyclase, the culture medium was suctioned off and the cells were washed once with Ringer's solution and incubated in stimulation buffer with or without an NO donor (sodium nitroprusside, SNP, 1 μM). Thereafter, the test substances (final concentration 1 μM) were pipetted onto the cells. At the end of the 10-minute incubation period, the buffered solution was suctioned off and the cells were lysed at −20° C. for 16 hours. The intracellular cGMP was then determined radioimmunologically.
as §1, with “sucked” for “suctioned”
as §1, with “without” for “without an”, “buffer” for “buffered”

In data set [3] the test system is rabbit aortic rings precontracted with phenylephrine. Nature of the data set: Vessel-relaxing action in vitro on isolated aortic rings precontracted with phenylephrine. Particulars: Oryctolagus cuniculus, rabbit aorta rings, phenylephrine contraction. Here is the method: Vessel-relaxing Action in vitro
Rings 1.5 mm wide of an aorta isolated from a rabbit are introduced individually, under pretension, in 5 ml organ baths with Krebs-Henseleit solution warmed to 37° C. and gassed with carbogen. The contraction force is amplified and digitalized and recorded in parallel on a line recorder. To generate a contraction, phenylephrine is added cumulatively to the bath in an increasing concentration.
After several control cycles, the substance to be investigated is investigated in each further pass in each case in an increasing dosage, and a comparison is made with the level of the contraction achieved in the last preliminary pass. The concentration necessary to reduce the level of the control value by 50% (IC50) is calculated from this. The standard application volume is 5 μl.
After several control cycles, the substance to be investigated is investigated in each further pass in each case in an increasing dosage, and a comparison is made with the level of the contraction achieved in the last preliminary pass. The concentration necessary to reduce the level of the control value by 50% (IC50) is calculated from this.
The standard application volume is 5 μl.

pIC50: −log10 of the molar value. In brackets after ≈: the same amount, converted by molar mass. Read-outs that look alike come from different tables or passages of the source.

What is called IC50 is the concentration that inhibits the measured activity by half. Lower therefore signals higher potency. `CCOC(=O)c1csc(-c2nn(Cc3ccccc3)c3ccccc23)n1` [III-72, Ethyl 2-(1-benzyl-indazol-3-yl)-thiazole-4-carboxylate] had an IC50 in data set [1] (embodiment III) of 1 µg/mL (≈ 2.75 µM).

As a reminder, the pIC50 is the IC50 on a negative log10 scale, so that one unit is a factor of ten. On to `N#Cc1ccccc1Cn1nc(-c2ccc(CO)o2)c2ccccc21` [IV-136, 1-(^2-Cyanobenzyl)-3-(5-hydroxymethylfuran-2-yl)-indazole], for which the activation at 1 µM in data set [2] (embodiment IV) is over 1000%. This molecule also showed an IC50 in data set [1] (embodiment IV) of 30 µg/mL (≈ 91.1 µM). In addition, the pIC50 in data set [3] (iv, embodiment IV) was 5.14.

`OCc1cnc(-c2nn(Cc3ccccc3)c3ccccc23)o1` [III-71, 1-Benzyl-3-(5-hydroxymethyl-oxazol-2-yl)-indazole]: the activation at 1 µM in data set [2] (embodiment III) amounted to 315%. The molecule further displayed a concentration for half-maximal inhibition (IC50) in data set [1] (embodiment III) of 50 µg/mL (≈ 164 µM). The same molecule had a negative logarithm of the IC50 (pIC50) in data set [3] (embodiment III) of 5.30.

Consider `OCc1nnc(-c2nn(Cc3ccccc3F)c3ccccc23)o1` [III-79], for which the “% increase in cGMP” value in data set [2] (embodiment III) worked out at 124%. In data set [3] (embodiment III), the pIC50 was 4.89.

Regarding `Cc1cc(-c2nn(Cc3ccccc3)c3ccccc23)oc1CO` [IV-179], the activation at 1 µM in data set [2] (embodiment IV) came out at 921%. For the same molecule, the negative logarithm of the IC50 (pIC50) in data set [3] (iv, embodiment IV) is 4.96.

`N#Cc1cnc(-c2nn(Cc3ccccc3)c3ccccc23)nc1N` [II-49]: the activation at 1 µM in data set [2] (embodiment II) was over 1000%. The same molecule gave a pIC50 in data set [3] (embodiment II) of 4.19.

As for `OCCNc1nccc(-c2nn(Cc3ccccc3)c3ccccc23)n1` [II-52], the activation at 1 µM in data set [2] (embodiment II) came to 397%. Moreover, the pIC50 in data set [3] (embodiment II) is 4.85.

In the case of `CC(=O)OCc1nnc(-c2nn(Cc3ccccc3F)c3ccccc23)o1` [III-78], the activation at 1 µM in data set [2] (embodiment III) was 223%. In data set [3] (embodiment III), this molecule showed a negative logarithm of the IC50 (pIC50) of 5.00.

What is called melting point is the temperature of the solid-liquid transition. `Cc1nc(-c2nn(Cc3ccccc3F)c3ccccc23)oc1CN1C(=O)c2ccccc2C1=O` [Process Example 11, 2-[1-(2-fluorobenzyl)-indazole-3-yl]-4-methyl-5-(N-phthalimidomethyl)-oxazole] showed a melting point of 175 to 177 °C.

As to `OCc1cccc(-c2nn(Cc3ccccc3F)c3ccccc23)n1` [II-62], the melting point was 99 °C. The molecule also gave a negative-log IC50 (pIC50) in data set [3] (embodiment II) of 4.89.

As for `c1ccc(Cn2nc(-c3ncco3)c3ccccc32)cc1` [III-87], in data set [2] (embodiment III), the activation at 1 µM stood at 268%. This molecule also showed a negative logarithm of the IC50 (pIC50) in data set [3] (embodiment III) of 4.72.

`CC(O)c1ccc(-c2nn(Cc3ccccc3)c3ccccc23)o1` (stereo not shown) [IV-139, 1-[5-(1-Benzylindazol-3-yl)-furan-2-yl]-ethanol]: the activation at 1 µM in data set [2] (embodiment IV) came to 723%. In data set [3] (iv, embodiment IV), this molecule had a pIC50 of 4.92.

For `Cc1cnc(-c2nn(Cc3ccccc3)c3ccccc23)nc1C` [II-38, 1-Benzyl-3-(4,5-dimethyl-2-pyrimidyl)indazole], the activation at 1 µM in data set [2] (embodiment II) is over 1000%. This molecule also showed a negative logarithm of the IC50 (pIC50) in data set [3] (embodiment II) of 4.96.

In the case of `Cc1cccc(-c2nn(Cc3ccccc3)c3ccccc23)n1` [II-59], the activation at 1 µM in data set [2] (embodiment II) turned out to be 268%. Also, in data set [3] (embodiment II), the negative logarithm of the IC50 (pIC50) was under 4.48.
